Converted amounts (≈) assume the structure as drawn.

Data set [1] has as its system Human alphaherpesvirus 3. In words: Antiviral activity against thymidine kinase-positive Human herpesvirus 3 infected in HEL cells assessed as inhibition of viral plaque formation. Format: functional, organism-based. As to conditions: Human alphaherpesvirus 3, HEL.
Data set [2] can be described thus: Octanol-water partition coefficient, log P of the compound. Format: physicochemical.
Data set [3] has as its system Staphylococcus aureus. In words: Antimicrobial activity against Staphylococcus aureus after 24 hr by serial dilution method. Format: functional.
Data set [4] deals with Aspergillus niger. In words: Antimicrobial activity against Aspergillus niger after 7 days by serial dilution method. The data set is classed as functional.
Data set [5] has as its system Human immunodeficiency virus 2. In words: Antiviral activity against Human immunodeficiency virus type 2 (ISOLATE ROD) infected human MT4 cells assessed as inhibition of virus-induced cytopathic effect after 4 days by MTT assay. The data set is classed as functional, organism-based. The conditions noted are these: Human immunodeficiency virus 2, ISOLATE ROD, MT4, 96 h.

The test system of data set [6] is Human immunodeficiency virus 1. In words: Antiviral activity against Human immunodeficiency virus 1 IIIB infected human MT4 cells assessed as inhibition of virus-induced cytopathic effect after 4 days by MTT assay. The data set is classed as functional, organism-based. As to conditions: MT4, 96 h.
The test system of data set [7] is Human betaherpesvirus 5. In words: Antiviral activity against Human herpesvirus 5 Davis infected human HEL cells assessed as reduction in the virus plaque formation. Format: functional, organism-based. As to conditions: Human betaherpesvirus 5, Davis.
For data set [8], the system named is Escherichia coli. In words: Antimicrobial activity against Escherichia coli after 24 hr by serial dilution method. Format: functional.
In data set [9] the test system is Candida albicans. In words: Antimicrobial activity against Candida albicans after 2 days by serial dilution method. The data set is classed as functional.
Data set [10] can be described thus: Cytotoxicity against HEL assessed as minimum concentration required to cause morphological changes. Format: cell-based. The conditions noted are these: human, HEL cells.
Data set [11] has as its system Bacillus subtilis. In words: Antimicrobial activity against Bacillus subtilis after 24 hr by serial dilution method. The data set is classed as functional.
For data set [12], the system named is Human betaherpesvirus 5. In words: Antiviral activity against Human herpesvirus 5 strain AD169 infected human HEL cells assessed as reduction in the virus plaque formation. Format: functional, organism-based. The conditions noted are these: Human betaherpesvirus 5, AD169, HEL.
A short description of data set [13]: Cytotoxicity against Homo sapiens (human) MT4 cells after 4 days by MTT assay. The data set is classed as cell-based. For orientation: Tetrazolium dyes change colour on reduction, which living cells bring about.
The nature of data set [14]: Cytotoxicity against HEL. The data set is classed as cell-based. The conditions noted are these: human, HEL cells.
Data set [15] deals with Human alphaherpesvirus 3. In words: Antiviral activity against thymidine kinase-deficient Human herpesvirus 3 infected in HEL cells assessed as inhibition of viral plaque formation. The data set is classed as functional, organism-based. As to conditions: Human alphaherpesvirus 3, HEL.

Regarding `C/C(=N\NC(=O)COc1cccc2ccccc12)c1cccc([N+](=O)[O-])c1`, the EC50 in data set [1] is more than 4 µg/mL; in data set [5], more than 12.1 µg/mL; in data set [6], more than 12.1 µg/mL; in [7], more than 4 µg/mL; in [12] it was more than 4 µg/mL; in [15] it was more than 4 µg/mL. This compound also showed a logP in data set [2] of 3.37. The “-logMIC” value in data set [3] came out at 1.76; in data set [4], 1.46; in data set [8], 1.46; in data set [9] it was 1.76; in [11], 1.16. Moreover, the MCC in data set [10] worked out at 20 µg/mL. The same compound came in with a CC50 at 96 h in data set [13] of 12.1 µg/mL (≈ 33.2 µM). Also, the CC50 in data set [14] is 10.5 µg/mL (≈ 28.9 µM).

On to `COc1ccc(/C=N/NC(=O)COc2cccc3ccccc23)cc1`, for which the EC50 in data set [1] is more than 4 µg/mL; in [5], more than 76.9 µg/mL; in [6], more than 76.9 µg/mL; in data set [7] it was more than 4 µg/mL; in data set [12], more than 4 µg/mL; in data set [15], more than 4 µg/mL. Moreover, the logP in data set [2] was 3.77. Further, the “-logMIC” value in [3], in data set [4], in data set [8], in data set [9] and in data set [11] was 0.82 in each case. Besides, in [10], the MCC was found to be 20 µg/mL. Besides, the CC50 at 96 h in [13] turned out to be 76.9 µg/mL (≈ 230 µM). The CC50 in [14] is 100 µg/mL (≈ 299 µM).

Consider `O=C(COc1cccc2ccccc12)N/N=C/c1ccccc1O`, for which the EC50 was more than 0.8 µg/mL in data set [1]; more than 5.19 µg/mL in data set [5]; more than 5.19 µg/mL in [6]; more than 4 µg/mL in [7]; more than 4 µg/mL in data set [12]; more than 0.8 µg/mL in data set [15]. In addition, the logP in data set [2] amounted to 3.73. In addition, the “-logMIC” value in [3] stood at 1.71; in [4], 1.11; in [8], 1.41; in data set [9], 1.41; in data set [11] it was 1.11. Besides, the MCC in [10] came to 20 µg/mL. Also, in [13], the CC50 at 96 h was found to be 5.19 µg/mL (≈ 16.2 µM). Further, in data set [14], half-maximal cytotoxicity (CC50) was put at 3.57 µg/mL (≈ 11.1 µM).

With `COc1cc(/C=N/NC(=O)COc2cccc3ccccc23)cc(OC)c1O`, the EC50 was 16.9 µg/mL (≈ 44.4 µM) in data set [1]; more than 16.3 µg/mL in data set [5]; more than 16.3 µg/mL in data set [6]; more than 20 µg/mL in data set [7]; more than 20 µg/mL in [12]; more than 20 µg/mL in [15]. The compound further returned a logP in data set [2] of 3.23. Further, the “-logMIC” value in [3] was found to be 1.18; in data set [4], 1.48; in data set [8], 1.48; in data set [9] it was 1.78; in data set [11] it was 1.48. In addition, in [10], the MCC was 100 µg/mL. For the same compound, in [13], the CC50 at 96 h is 16.3 µg/mL (≈ 42.8 µM). For the same compound, the CC50 in data set [14] was 52.8 µg/mL (≈ 139 µM).

Turning to `O=C(COc1cccc2ccccc12)N/N=C/c1ccc(F)cc1`, the half-maximal effective concentration (EC50) in data set [1] was more than 20 µg/mL; in [5], more than 65 µg/mL; in [6], more than 65 µg/mL; in [7] it was more than 20 µg/mL; in data set [12], more than 20 µg/mL; in data set [15] it was more than 20 µg/mL. For the same compound, in data set [2], the logP amounted to 4.16. The “-logMIC” value in data set [3] worked out at 1.41; in data set [4], 0.81; in [8] it was 1.41; in data set [9] it was 0.81; in data set [11], 1.11. Further, the MCC in [10] is 100 µg/mL. The CC50 at 96 h in data set [13] amounted to 65 µg/mL (≈ 202 µM). The CC50 in data set [14] came out at 71.6 µg/mL (≈ 222 µM).

Take `C/C(=N\NC(=O)COc1cccc2ccccc12)c1ccc([N+](=O)[O-])cc1`: the 50% effective concentration (EC50) in data set [1] is more than 20 µg/mL; in data set [5] it was more than 89.3 µg/mL; in [6], more than 89.3 µg/mL; in data set [7], more than 20 µg/mL; in data set [12], more than 20 µg/mL; in [15], more than 20 µg/mL. The logP in data set [2] came to 3.37. Further, the “-logMIC” value came out at 1.16 in [3]; 0.86 in data set [4]; 1.46 in [8]; 1.46 in data set [9]; 1.16 in data set [11]. In addition, the MCC in data set [10] is 100 µg/mL. In addition, the CC50 at 96 h in data set [13] amounted to 89.3 µg/mL (≈ 246 µM). In addition, the 50% cytotoxic concentration (CC50) in [14] is more than 100 µg/mL.

By EC50 is commonly meant the concentration at which the effect is half-maximal. For orientation: logP means the decadic logarithm of the partition coefficient of the neutral form, usually between octanol and water. Low values mean a more hydrophilic compound, high ones a more lipophilic compound. The term CC50 denotes the concentration giving 50% cytotoxicity.

(Values after ChEMBL document CHEMBL3045401, “(Naphthalen-1-yloxy)-acetic acid benzylidene/(1-phenyl-ethylidene)-hydrazide derivatives: synthesis, antimicrobial evaluation, and QSAR studies” (Med Chem Res, 2012).)
